Test results as given in ChEMBL document CHEMBL1137908, “Synthesis and antibacterial activity of novel 6-fluoro-1-[(1R,2S)-2-fluorocyclopropan-1-yl]-4-oxoquinoline-3-carboxylic acids bearing cyclopropane-fused 2-amino-8-azabicyclo[4.3.0]nonan-8-yl substituents at the C-7 position” (Bioorg Med Chem Lett, 2004).
≈ marks a conversion by molar mass, not a printed value.

Tests used:
[1] = Ratio of binding to human DNA topoisomerase II and Staphylococcus aureus DNA topoisomerase IV
[2] = tested on: Staphylococcus epidermidis; experiment: Antibacterial activity against Staphylococcus epidermidis 56500 was determined; format: functional
Streptococcus pyogenes = experiment: Antibacterial activity against Streptococcus pyogenes G-36 was determined; format: functional
Staphylococcus aureus [3] = experiment: Antibacterial activity against methicillin-resistant Staphylococcus aureus (MRSA) 870307 was determined; format: functional
Streptococcus mitis = experiment: Antibacterial activity against Streptococcus mitis IID685 was determined; format: functional
Streptococcus pneumoniae = experiment: Antibacterial activity against Penicillin-resistant Streptococcus pneumoniae (PRSP) J-24 was determined; format: functional
[4] = biological target: T1, DNA topoisomerase 4 subunit A (Staphylococcus aureus subsp. aureus Mu50, UniProt Q931S2); experiment: Inhibitory concentration against Staphylococcus aureus DNA topoisomerase IV
T1 sequence (Q931S2 whole entry): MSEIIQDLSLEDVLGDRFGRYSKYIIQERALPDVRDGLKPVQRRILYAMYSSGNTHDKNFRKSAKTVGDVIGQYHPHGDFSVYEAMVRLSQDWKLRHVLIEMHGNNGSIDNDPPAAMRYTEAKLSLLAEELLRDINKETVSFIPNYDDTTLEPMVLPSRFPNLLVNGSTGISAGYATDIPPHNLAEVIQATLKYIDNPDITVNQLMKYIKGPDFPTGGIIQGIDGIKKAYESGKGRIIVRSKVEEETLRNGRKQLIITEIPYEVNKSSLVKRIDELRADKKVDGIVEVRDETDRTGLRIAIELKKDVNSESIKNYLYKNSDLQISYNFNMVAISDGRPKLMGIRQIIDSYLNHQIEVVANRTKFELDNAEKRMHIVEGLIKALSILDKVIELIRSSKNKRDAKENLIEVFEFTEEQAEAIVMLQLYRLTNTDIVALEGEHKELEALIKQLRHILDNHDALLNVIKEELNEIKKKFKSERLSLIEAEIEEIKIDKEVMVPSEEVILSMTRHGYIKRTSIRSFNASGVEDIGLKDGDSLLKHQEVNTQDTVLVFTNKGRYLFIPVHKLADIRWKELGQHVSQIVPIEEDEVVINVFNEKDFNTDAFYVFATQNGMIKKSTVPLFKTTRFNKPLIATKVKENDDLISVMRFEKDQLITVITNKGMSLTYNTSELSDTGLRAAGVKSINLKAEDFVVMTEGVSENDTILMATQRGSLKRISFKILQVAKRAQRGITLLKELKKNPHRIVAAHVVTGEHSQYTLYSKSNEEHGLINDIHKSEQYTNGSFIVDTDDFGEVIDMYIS

Klebsiella pneumoniae = experiment: Antibacterial activity against Klebsiella pneumoniae type II was determined; format: functional
Staphylococcus aureus [5] = experiment: Antibacterial activity against Staphylococcus aureus FDA 209P was determined; format: functional
Enterococcus faecalis = experiment: Antibacterial activity against Enterococcus faecalis ATCC 19433 was determined; format: functional
Escherichia coli = experiment: Antibacterial activity against Escherichia coli NIHJ was determined; format: functional
DNA topoisomerase II = DNA topoisomerase II (Homo sapiens, UniProt P11388+Q02880); experiment: Inhibitory concentration against human DNA topoisomerase II; format: protein assay
[6] = Klebsiella pneumoniae, read-out: MIC
[7] = Staphylococcus aureus, read-out: MIC
[8] = Staphylococcus epidermidis, read-out: MIC
[9] = Enterococcus faecalis, ATCC 19433, read-out: MIC
[10] = Streptococcus pyogenes, read-out: MIC
[11] = Streptococcus mitis, read-out: MIC
[12] = Streptococcus pneumoniae, read-out: MIC
[13] = Escherichia coli, read-out: MIC

Compound	MIC [2]	MIC (Streptococcus pyogenes)	MIC (Staphylococcus aureus [3])	MIC (Streptococcus mitis)	MIC (Streptococcus pneumoniae)	MIC (Klebsiella pneumoniae; [6])	MIC (Staphylococcus aureus [5]; [7])	MIC [2, 8]	MIC (Enterococcus faecalis; [9])	MIC (Streptococcus pyogenes; [10])	MIC (Staphylococcus aureus [3]; [7])	MIC (Streptococcus mitis; [11])	MIC (Streptococcus pneumoniae; [12])	MIC (Escherichia coli; [13])	further results
Nc1c(F)c(N2C[C@H]3C[C@@H]4C[C@@H]4[C@H](N)[C@H]3C2)c(F)c2c1c(=O)c(C(=O)O)cn2[C@@H]1C[C@@H]1F (stereo in doubt; 26 (+))															Selectivity [1]: 17.3
Nc1c(F)c(N2C[C@H]3C[C@@H]4C[C@@H]4[C@H](N)[C@H]3C2)c(F)c2c1c(=O)c(C(=O)O)cn2[C@@H]1C[C@@H]1F (stereo in doubt; 27 (-))	0.006 µg/mL (≈ 0.0134 µM)	0.01 µg/mL (≈ 0.0223 µM)	0.2 µg/mL (≈ 0.446 µM)	0.006 µg/mL (≈ 0.0134 µM)	0.006 µg/mL (≈ 0.0134 µM)										
Nc1c(F)c(N2C[C@H]3CCC[C@@H](N)[C@H]3C2)c(F)c2c1c(=O)c(C(=O)O)cn2[C@@H]1C[C@@H]1F (stereo in doubt; 28 (+)) [listing 1 of 2 here]	<=0.003 ug ml-1	<=0.003 ug ml-1	0.006 µg/mL (≈ 0.0137 µM)	<=0.003 ug ml-1	<=0.003 ug ml-1										IC50 [4]: 412 nM; MIC (Klebsiella pneumoniae): 0.01 µg/mL (≈ 0.0229 µM); MIC (Staphylococcus aureus [5]): <=0.003 ug ml-1; MIC (Enterococcus faecalis): 0.02 µg/mL (≈ 0.0458 µM); MIC (Escherichia coli): <=0.003 ug ml-1; IC50 (DNA topoisomerase II): 7 µg/mL (≈ 16 µM)
Nc1c(F)c(N2C[C@H]3CCC[C@@H](N)[C@H]3C2)c(F)c2c1c(=O)c(C(=O)O)cn2[C@@H]1C[C@@H]1F (stereo in doubt; 28 (+)) [listing 2 of 2 here]															Selectivity [1]: 38.3
Nc1c(F)c(N2C[C@H]3CCC[C@@H](N)[C@H]3C2)c(F)c2c1c(=O)c(C(=O)O)cn2[C@@H]1C[C@@H]1F (stereo in doubt; 29 (-))	0.2 µg/mL (≈ 0.458 µM)	0.1 µg/mL (≈ 0.229 µM)	0.78 µg/mL (≈ 1.79 µM)	0.1 µg/mL (≈ 0.229 µM)	0.1 µg/mL (≈ 0.229 µM)										MIC (Klebsiella pneumoniae): 0.39 µg/mL (≈ 0.894 µM); MIC (Staphylococcus aureus [5]): 0.02 µg/mL (≈ 0.0458 µM); MIC (Enterococcus faecalis): 0.78 µg/mL (≈ 1.79 µM); MIC (Escherichia coli): 0.1 µg/mL (≈ 0.229 µM)
C[C@H]1COc2c(N3CCN(C)CC3)c(F)cc3c(=O)c(C(=O)O)cn1c23.C[C@H]1COc2c(N3CCN(C)CC3)c(F)cc3c(=O)c(C(=O)O)cn1c23.O [LEVOFLOXACIN]						0.05 µg/mL	0.2 µg/mL	0.39 µg/mL	0.78 µg/mL	0.78 µg/mL	> 6.25 µg/mL	0.39 µg/mL	0.78 µg/mL		
CC(=O)NC[C@H]1CN(c2ccc(N3CCOCC3)c(F)c2)C(=O)O1 [LINEZOLID]						> 6.25 µg/mL	0.78 µg/mL (≈ 2.31 µM)	1.56 µg/mL (≈ 4.62 µM)	3.13 µg/mL (≈ 9.28 µM)	3.13 µg/mL (≈ 9.28 µM)	1.56 µg/mL (≈ 4.62 µM)	1.56 µg/mL (≈ 4.62 µM)	0.78 µg/mL (≈ 2.31 µM)	6.25 µg/mL (≈ 18.5 µM)	
COc1c(N2C[C@@H]3CCCN[C@@H]3C2)c(F)cc2c(=O)c(C(=O)O)cn(C3CC3)c12 [MOXIFLOXACIN]						0.05 µg/mL (≈ 0.125 µM)	0.02 µg/mL (≈ 0.0498 µM)	0.1 µg/mL (≈ 0.249 µM)	0.2 µg/mL (≈ 0.498 µM)	0.2 µg/mL (≈ 0.498 µM)	0.78 µg/mL (≈ 1.94 µM)	0.1 µg/mL (≈ 0.249 µM)	0.02 µg/mL (≈ 0.0498 µM)	0.006 µg/mL (≈ 0.0149 µM)	
CN[C@H](CC(C)C)C(=O)N[C@H]1C(=O)N[C@@H](CC(N)=O)C(=O)N[C@H]2C(=O)N[C@H]3C(=O)N[C@H](C(=O)N[C@H](C(=O)O)c4cc(O)cc(O)c4-c4cc3ccc4O)[C@H](O)c3ccc(c(Cl)c3)Oc3cc2cc(c3O[C@@H]2O[C@H](CO)[C@@H](O)[C@H](O)[C@H]2O[C@H]2C[C@](C)(N)[C@H](O)[C@H](C)O2)Oc2ccc(cc2Cl)[C@H]1O [VANCOMYCIN]						> 6.25 µg/mL	0.2 µg/mL (≈ 0.138 µM)		0.39 µg/mL (≈ 0.269 µM)	0.39 µg/mL (≈ 0.269 µM)	0.39 µg/mL (≈ 0.269 µM)	0.39 µg/mL (≈ 0.269 µM)	0.2 µg/mL (≈ 0.138 µM)	> 6.25 µg/mL	
